From patent US9115363B2, “Gene expression and eradication system in Helicobacter pylori” (priority 2011, dated 2015)
Several values for one entry are separate records, joined by “and”; a condition that tells them apart may be missing. Identical values can stand only once.

Key:
ptetR2 and uPtetO1-GFP = assay: GFP disc diffusion assay; assay type: cell-based, H. pylori; details: bacterial lawns containing ptetR2 and uPtetO1-GFP; after 24 hours of incubation
[1] = test system: TetR-controlled GFP expression; assay: Kinetics of uPtetO1-GFP induction by immunoblotting; assay type: cell-based, H. pylori
Description: (§1) Immunoassays—SDS-PAGE and Western Blot Analysis
Whole cell lysates of bacteria growing on either chloramphenicol or streptomycin plates was resuspended in phosphate-buffered saline (PBS) buffer. Cells were pelleted and resuspended in lysis buffer (50 mM Tris-HCl, 250 mM NaCl, 1% triton X-100) and incubated on ice for 15 min. Samples were then sonicated for 10 sec. Insoluble cell debris was removed by centrifugation at 13,000 rpm form 10 min at 4° C. Cell lysates were mixed with sodium dodecyl sulfate (SDS) sample buffer and incubated at 95° C. for 10 min. The proteins were separated by 10% SDS-polyacrylamide gel electrophoresis (PAGE) and electrotransferred to a pvdf (0.22 μm Immobulon, Millipore) membrane at 4° C. with a constant voltage of 90 V in transfer buffer (192 mM glycine, 25 mM Tris, 20% [vol/vol] methanol) for 2 hours. The membrane was blocked by using 2% BSA (Sigma) in PBST (150 mM NaCl, 10 mM Tris-C1, pH 7.0, 0.1% [vol/vol] Tween 20) and then incubated with the appropriate primary antibody, washed and then incubated with a secondary antibody containing a horseradish peroxidise (HRP) conjugate. The membrane was washed again and detection of secondary HRP conjugate was accomplished by chemiluminescence (Sigma). […] Chemiluminescence was detected using LAS 3000 (Fujifilm)(software Image reader LAS 3000 V2.2)

[2] = test system: urePtetO promoters (UreB subunit); assay: Immunoblotting of UreB in urePtetO strains; assay type: cell-based, H. pylori
Description: as §1
Whole cell lysates of bacteria growing on either chloramphenicol or streptomycin plates was resuspended in phosphate-buffered saline (PBS) buffer. Cells were pelleted and resuspended in lysis buffer (50 mM Tris-HCl, 250 mM NaCl, 1% triton X-100) and incubated on ice for 15 min. Samples were then sonicated for 10 sec. Insoluble cell debris was removed by centrifugation at 13,000 rpm form 10 min at 4° C. Cell lysates were mixed with sodium dodecyl sulfate (SDS) sample buffer and incubated at 95° C. for 10 min. The proteins were separated by 10% SDS-polyacrylamide gel electrophoresis (PAGE) and electrotransferred to a pvdf (0.22 μm Immobulon, Millipore) membrane at 4° C. with a constant voltage of 90 V in transfer buffer (192 mM glycine, 25 mM Tris, 20% [vol/vol] methanol) for 2 hours. The membrane was blocked by using 2% BSA (Sigma) in PBST (150 mM NaCl, 10 mM Tris-C1, pH 7.0, 0.1% [vol/vol] Tween 20) and then incubated with the appropriate primary antibody, washed and then incubated with a secondary antibody containing a horseradish peroxidise (HRP) conjugate. The membrane was washed again and detection of secondary HRP conjugate was accomplished by chemiluminescence (Sigma). For detection of TetR and revTetR, rabbit polyclonal IgG anti TetR (MoBiTec) at a dilution of 1:2000 was used as the primary. For detection of UreB subunit, mouse monoclonal IgG anti UreB (Austral Biologicals) was used at a dilution of 1:8000. For detection of GFP, rabbit polyclonal anti GFP (Ondek) was used at a dilution of 1:2000. Secondary antibodies, mouse anti-rabbit-HRP and rabbit anti-mouse-HRP (Jackson ImmunoResearch Laboratories) were used at a dilution of 1:10,000. Chemiluminescence was detected using LAS 3000 (Fujifilm)(software Image reader LAS 3000 V2.2)

[3] = test system: urePtetO induction of Tet-ON strains; assay: Urease plate assay; assay type: cell-based, H. pylori; details: for ATc concentration at which significant urease activity is detected: after 24 h
[4] = test system: B128 pHel2-IEC-Ts-FliCsyn transconjugants; assay: Immunoblotting of conditional fliCsyn expression; assay type: cell-based, H. pylori; details: selective blood agar plates with 50 ng/ml ATc; all tested clones
Description: The conditional expression of fliCsyn and expression of TetRs in the transconjugants B128 pHel2-IEC-Ts-FliCsyn was analyzed by immunobloting.
Bacteria were grown for 24 hours on selective plates or in selective liquid media. Cells were harvested and resuspended in phosphate-buffered saline (PBS) buffer. Samples were then sonicated for 10 seconds, mixed with sodium dodecyl sulfate (SDS) sample buffer and incubated at 37° C. for 15 min. Insoluble cell debris was removed by centrifugation at 13,000 rpm for 1 min. The proteins were separated by 10% SDS-polyacrylamide gel electrophoresis (PAGE) and electro-transferred to a PVDF membrane (Immobilon-P Transfer (0.45 μm, Millipore) with a constant voltage of 100 V in transfer buffer (192 mM glycine, 25 mM Tris, 20% [vol/vol] methanol) for 1 hour. The membranes were blocked with 3% BSA (Sigma) in PBST (150 mM NaCl, 10 mM Tris-C1, pH 7.0, 0.1% [vol/vol] Tween 20) and then incubated with the appropriate primary antibody, washed and then incubated with a secondary antibody containing a horseradish peroxidise (HRP) conjugate. The membrane was washed again and detection of secondary HRP conjugate was accomplished by chemiluminescence (Sigma). For detection of Cre recombinase, rabbit polyclonal IgG anti Cre (abcam) was used at a dilution of 1:1000. […] Chemiluminescence was detected using LAS 3000 (Fujifilm)(software Image reader LAS 3000 V2.2)

[5] = test system: urease activity of X47 urePtetO strains; assay: Liquid urease activity assay; assay type: cell-based, H. pylori
Description: Bacteria were grown on CBA plates with or without 50 ng/mL ATc for two successive passages. Bacteria were resuspended in cold buffer A (25 mM phosphate buffer, pH 6.8) and standardized to an OD600 of 4.0. 50 μL of standardized bacterial suspension was diluted with 50 μL of buffer B (25 mM phosphate buffer, pH 6.8, 0.2% tween-20). In 96 well plate, 25 μL of diluted bacterial suspension was diluted with 150 μL of buffer C (25 mM phosphate buffer, pH 6.8, 250 μM phenol red) and incubated for 5 min at 37° C. 75 μL of urea solution (0.5 M) was then added and the absorbance at 560 nm was measured every 72 seconds for 75 cycles using a POLARstar Omega (BGM Labtech) platereader. Activity was measured as the rate of change in absorbance over time and expressed as percent of urease activity of the wild-type parent strain. All urease activity measurements were carried out in triplicate and experiments were repeated three times.

TetR = TetR (Escherichia coli, UniProt P0ACT4, D23E/I36V/T20V); details: cited from earlier work
[6] = test system: TetR-controlled GFP expression (uPtetO-GFP); assay: GFP reporter assay, liquid culture (BHI), induction by ATc; assay type: cell-based, H. pylori; details: for induction of GFP expression: 100 ng/mL ATc, BHI media
Description: 5 mL cultures were grown for 14 h and then induced with 200 ng/mL ATc unless otherwise stated. Bacteria were harvested by centrifugation, washed twice with PBS and resuspended to a density of 20D600. Then, 0.1 ml of the bacterial suspension was transferred into black 96-well plates, and fluorescence at 520 nm after excitation at 485 nm was measured in using the POLARstar Omega platereader.

urease activity = assay: Urease disc diffusion assay; assay type: cell-based, H. pylori; details: plate inoculated with untreated bacteria
Description: Bacteria were plated onto urease plates, and blank discs were placed onto the inoculated plate. 10 μL of ATc was placed onto each disc and plates were incubated under microaerophilic conditions and examined for colour change every […].

[7] = test system: GFP expression in strains expressing TetR or revTetR; assay: GFP fluorescence on blood agar plates with ATc; assay type: cell-based, H. pylori; details: 50 ng/mL ATc in blood agar plates
Description: Bacteria were plated onto fresh CBA plates with or without 50 ng/mL ATc and visualized after 24 hr incubation. For Tet-OFF strains, ptetR(2,4,6) bacteria were passaged twice on CBA plates containing ATc prior to the experiments, to allow strains enough time to repress GFP expression.

H. pylori = assay: Minimal inhibitory concentration of ATc in liquid culture; assay type: cell-based; details: MIC as measured in liquid culture; maximal induction at 100 ng/mL
[8] = test system: uPtetO-cre in X47 mdaB:: ptetR2; assay: Immunoblotting of conditional cre expression; assay type: cell-based, H. pylori; details: 50 ng/ml ATc, liquid culture, trpA:: uPtetO-cre, both strains
Text: In order to conditionally express the Cre recombinase in H. pylori two Tet responsive promoters uPtetO1 and uPtetO2 were selected to control the cre expression. They consist of the core urease promoter containing a C to T mutation in the −10 box and one tetO site just downstream of the transcriptional start point. uPtetO2 contains a second tetO site between the −35 and −10 box. A synthetic H. pylori codon usage optimized version of the cre gene was amplified and cloned into the plasmid pTrpA-uPtetO1-GFP and pTrpA-uPtetO2-GFP to replace GFP. Natural transformation of the recipient strain H. pylori X47 mdaB:: ptetR2; trpA:: rpsL-CAT with these plasmids (pTrpA-uPtetO(1/2)-Cre) allowed integration of uPtetO-cre fusions in the chromosome at the trpA locus by homologous recombination. The conditional expression of cre in the constructed strains X47 mdaB:: ptetR2; trpA:: uPtetO-cre was analyzed by immunoblotting. Bacteria were grown in liquid culture the presence of none or 50 ng/ml ATc, respectively.
Immunoassay—SDS-PAGE and Western Blot Analysis.
Bacteria were grown for 24 hours on selective plates or in selective liquid media. Cells were harvested and resuspended in phosphate-buffered saline (PBS) buffer. […] Chemiluminescence was detected using LAS 3000 (Fujifilm)(software Image reader LAS 3000 V2.2)

revTetR = revTetR (Escherichia coli, UniProt P0ACT4); details: cited from earlier work
[9] = test system: Tet-ON mdaB::ptetR; urePtetO strains; assay: In vivo induction of urePtetO by doxycycline, C57BL/6J infection model; design: species or system H. pylori; details: for dox concentration at which the strain could be re-isolated: one week of infection, C57BL/6J mice
Description: Regulation of urePtetO to drive the expression of urease by dox was evaluated using a C57BL/6J infection model. Mice were orally challenged with one of several Tet-ON, mdaB::ptetR; urePtetO strains and supplemented with a range of dox concentrations that were within the tolerance of X47. Urease is known to be an essential gene required for colonization, and therefore Tet-ON urePtetO strains should not be able to colonize in the absence of the inducer. […] Infection of urePtetO strains is dependent on dox supplementation (FIG. 9F). Mice were supplemented with dox for two weeks after infection to establish successful colonization of mdaB:: ptetR4; urePtetOI. […] Infection by strain mdaB::ptetR4; urePtetOI could be maintained for at least 4 weeks with dox supplementation.
6-7 week old C57BL/6J female mice were orally gavaged once with 200 μL of 1×10^9 CFU/mL bacteria, that had been passaged on CBA plates containing 50 ng/mL ATc to induce expression of tetracycline responsive genes. Mice were supplemented with doxycycline in their drinking water containing 5% sucrose. Mice were sacrificed at indicated time points and stomachs were removed and homogenized in 1 mL BHI using a tissue lysing agent (Retch). Homogenates were serially diluted and plated out on H. pylori selective plates, (CBA containing 5% Horse blood, Dent, polymyxin B 2500 U/L or 0.2975 mg/L, nalidixic acid 10 mg/L and Bacitracin 100 mg/L). Colonies were counted to calculate bacteria load. Re-isolated clones were checked for tet responsive gene expression and sequenced when appropriate.

Sequence of revTetR (P0ACT4 with tags, fused parts or gaps E15A/L17G/T20V/D23E/L25V/I36V): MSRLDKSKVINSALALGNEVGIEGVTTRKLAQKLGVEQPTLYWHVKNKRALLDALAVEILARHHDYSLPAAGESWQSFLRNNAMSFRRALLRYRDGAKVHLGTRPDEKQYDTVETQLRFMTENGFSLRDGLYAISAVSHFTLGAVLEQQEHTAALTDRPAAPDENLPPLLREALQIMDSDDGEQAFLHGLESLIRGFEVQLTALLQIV
Sequence of TetR (P0ACT4 with tags, fused parts or gaps T20V/D23E/I36V): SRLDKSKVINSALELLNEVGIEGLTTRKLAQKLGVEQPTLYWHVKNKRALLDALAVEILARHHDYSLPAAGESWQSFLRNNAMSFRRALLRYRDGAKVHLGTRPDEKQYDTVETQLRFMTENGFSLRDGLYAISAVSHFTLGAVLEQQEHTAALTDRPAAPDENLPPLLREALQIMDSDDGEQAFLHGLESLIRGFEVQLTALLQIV

Cc1c2c(c(O)c3c(O)cccc13)C(=O)[C@]1(O)C(=O)C(C(N)=O)=C(O)[C@@H](N(C)C)[C@@H]1C2 [ATc, Anhydrotetracycline]
GFP expression around ATc discs (ptetR2 and uPtetO1-GFP): halo of GFP expression is evident around each disc
time of maximal GFP activities after the addition of ATc ([1]; ptetR2 and ptetR4 containing bacteria): 16 h
kinetics of GFP induction ([1]; ptetR6 containing bacteria): strong but delayed induction
repression of UreB expression ([2]; constructs I, II and V of the Tet-OFF system): Incomplete repression
response of urePtetO to ATc ([2]; strains harbouring ptetR3): did not display response
abundance of the UreB subunit upon the addition of ATc ([2]; strains harbouring the revTetR repressor (Tet-OFF system)): reduced below the detection limit
ATc concentration sufficient to induce all five urePtetO promoters ([3]; ptetR4 strains): 1 ng/mL
ATc concentrations at which urease activity decreases ([3]; ptetR4 strains): above 25 ng/mL
ATc concentrations at which urease activity decreases ([3]; ptetR6 strains): above 50 ng/mL
ATc concentration at which urease activity is evident ([3]; ptetR6 strains, urePtetOIII, only after 48 hr): 25 ng/mL and 50 ng/mL
ATc concentration at which significant urease activity is detected ([3]; ptetR6 strains, urePtetOIV): 10 ng/mL
ATc concentration at which significant urease activity is detected ([3]; ptetR6 strains, urePtetOV): 5 ng/mL
expression of FliCsyn [4]: showed expression of FliCsyn
urease activity on addition of ATc ([5]; strains ptetR2, urePtetOI and V, ptetR3, urePtetOIV and ptetR6, urePtetOV): only partially restored
urease activity on addition of ATc ([5]; strains ptetR2, urePtetOII, ptetR3, urePtetOI, II and III): completely restored urease activity
urease activity on addition of ATc ([5]; the other Tet-ON strains): below 10 % of wild-type urease activity
binding affinity for TetR (TetR): very high binding affinity
induction of GFP expression ([6]; ptetR2 uPtetO1, all three recipient loci): 4-9 fold
induction of GFP expression ([6]; ptetR4 uPtetO1, all three recipient loci): 13-80 fold
induction of GFP expression ([6]; ptetR6 uPtetO1, all three recipient loci): 2-5 fold
induction of GFP expression ([6]; uPtetO2 strains, ptetR2): 1.5-3 fold
induction of GFP expression ([6]; uPtetO2 strains, ptetR4): 3-8 fold
induction of GFP expression ([6]; uPtetO2 strains, ptetR6): 3-8 fold
ATc concentration giving maximal GFP activities ([6]; bacteria grown in different concentrations of ATc): 100 ng/mL
GFP activities compared with maximal induction ([6]; induction with 25 ng/ml ATc): 2.4 fold lower
urease activity by diffusion of ATc from disc (urease activity): induced
GFP expression (observed fluorescence intensities) ([7]; strains expressing TetR): induction
GFP expression (observed fluorescence intensities) ([7]; strains expressing revTetR): repression
ATc concentration of maximal induction relative to the minimal inhibitory concentration (MIC) (H. pylori): 10 fold below
cre expression [8]: induced
binding affinity for revTetR (revTetR): very high binding affinity

C[C@H]1c2cccc(O)c2C(=O)C2=C(O)[C@]3(O)C(=O)C(C(N)=O)=C(O)[C@@H](N(C)C)[C@@H]3[C@@H](O)[C@@H]21 [dox, doxycycline]
time infection could be maintained with dox supplementation ([9]; strain mdaB::ptetR4, urePtetOI): at least 4 weeks
dox concentration at which the strain could be re-isolated ([9]; strain mdaB::ptetR4, urePtetOI): 0.1 to 5 µg/mL
dox concentration at which the strain could be re-isolated ([9]; strain mdaB::ptetR6, urePtetOV): 5 to 20 µg/mL
